Measured values from PMC8546421, “Molecular modelling of the FOXO4-TP53 interaction to design senolytic peptides for the elimination of senescent cancer cells” (EBioMedicine, 2021).
Where no end group is shown, it is not given here. [ ]: non-standard residue; d: D form.

Tests used:
[1] = tested on: senescent A375 human melanoma cells; assay: Orthotopic xenograft of senescent luciferase A375 cells in mouse ears; assay type: in vivo; settings: NSG mouse ears, local injection 50 µL of 5 mg/mL once daily for two days, imaged 24 hours after second treatment; ANOVA p<0.01
Source text: (§1) Mice were aged between 3-8 months and 20-30 g in weight and were housed in specific pathogen free cages. Animals were randomly distributed among treatment groups by assigning mice within the same cage to different treatment regimens. To minimise confounders, mouse treatment order was randomised within each cage. Male and female mice were distributed between all treatment groups since the chemicals used were directly injected and are not metabolized. Researchers were not blinded to the group allocation, but all attempts were made to analyse the data without knowing treatment conditions. NOD.Cg-Prkdcscid Il2rgtm1Wjl/SzJ (NSG) were purchased from The Jackson Laboratory (IMSR Cat# JAX:005557, RRID:IMSR_JAX:005557). NOD.Cg-KitW-41J Tyr + Prkdcscid Il2rgtm1Wjl/ThomJ (NBSGW) were purchased from The Jackson Laboratory (IMSR Cat# JAX:026622, RRID:IMSR_JAX:026622). Immunocompromised mice used for these experiments were all in the NSG background; however, some mice were F1 generation of NSG x NBSGW, thus the brown coat colour as NBSGW mice have tyrosinase. Xenografts containing senescent cells were established by injecting A375-Luc/iRFP human melanoma cells which contained a luciferase expressing gene into immunocompromised NSG ears. Senescence was induced in the cells via doxorubicin treatment (40 nM) then resuspended in DMEM prior to injection. Each ear was then injected with 50 µL containing approximately 1,000,000 cells. The ears were treated once daily for two days with 50 µL of either 5 mg/mL peptide, or saline. To control for confounders, each mouse contained one ear treated with saline (control). For imaging, mice were injected with 3 mg luciferin intravenously and imaged before and after treatment. Transgenic mice (BrafCA, PtenloxP, Tyr::CreERT2) were purchased from The Jackson Laboratory (IMSR Cat# JAX:013590, RRID:IMSR_JAX:013590). These mice were maintained on a C57Bl6 background and all experimental mice contained Tyr::CreER with either Braf^CA/+, Pten^fx/+; Braf^CA/CA, Pten^fx/+, or Braf^CA/+, Pten^fx/fx. […] Hypopigmented melanomas sporadically formed over the next 3-5 months, typically on the back of the mouse. These melanomas were then directly injected with 100 µL of either 20 mg/mL ES2+10%DMSO, saline+10%DMSO, saline+10%Dabrafenib, or 20 mg/mL ES2+10%Dabrafenib. The researchers were not blinded to the experiment, but each mouse contained an internal control and all imaging was done with the same exposure times based upon control tissue. For survival analyses, either 750,000 or 25,000 A375-Luc/iRFP cells were injected intradermally into NSG mice. Different combinations of drugs were locally injected to the region once daily for two days with 50 µL of either 5 mg/mL ES2, 10%Dabrafenib, or 5mg/mL ES2+10%Dabrafenib. Dabrafenib was made at 100 mg/mL in DMSO. Mice were then monitored daily and allowed to age until a humane endpoint was reached according to our IACUC protocol, which in this case was tumours of 2 cm in size. Aged C57Bl6 male mice were purchased from the Jackson Laboratory (IMSR Car# JAX:000664, RRID:IMSR_JAX:000664) at 72 weeks of age and were started on the experiment at 82 weeks. Mice were treated with 3 mg of ES2 via tail vein injection weekly for three weeks and weighed weekly. Blood was drawn prior to beginning experiments and at the endpoint. To generate plasma, blood was centrifuged at 1,500g for 10 minutes, then 2,500g for 10 minutes, then frozen for later analyses. […]

[2] = tested on: dividing A375 cells; assay: Peptide efficacy in culture (MTS), dividing cells; assay type: cell-based, human; settings: for IC50: peptide replenished daily for two days, MTS, best fit polynomial, read-out: IC50^div, concentration to kill 50% of dividing cells
Method: (§2) Cell lines were treated with chemotherapy, doxorubicin (Sigma, Cat. No. 2252) to induce senescence (200 nM for HCT116, 100 nM for B16-F10 and MCF7, 50 nM for SW480 and DLD-1, 40 nM for A375-Luc/iRFP and MCF10a). MCF7 cells were treated with CDK4/6 inhibitor, palbociclib (Selleck Chemicals: S1116) to induce senescence (5 µM). A375 cells were treated with Braf inhibitor, Dabrafenib (Selleck Chemicals: S2807), to induce senescence (10 µM). Peptide efficacy experiments were performed by seeding 10,000 – 20,000 cells in a 96-well plate. The cells were given doxorubicin twice to make the cells senescent. After removal of doxorubicin, the plate was treated with varying concentrations of peptide. The peptide was replenished daily for two days. Cellular proliferation was quantified using the Promega CellTiter 96™ AQueous One Solution Cell Proliferation Assay (MTS) after 2 hours according to the manufacturer's protocol (Promega, G3581). To control for the charge of ES2, ProteoJuice (Millipore Sigma, 71281) was used to deliver ES2 using the manufacturers protocol, except 50 µL of 2 mM ES2 was mixed with 25 µL of ProteoJuice. Varying concentrations of the mixture were administered to A375 cells along with a control of only ProteoJuice.

[3] = tested on: Braf/Pten sporadic melanomas; assay: SA-β-gal staining of melanomas in transgenic mice; assay type: in vivo, mouse
Method: Senescent and dividing cells or tissue sections were fixed with 4% formaldehyde. The cells were washed with PBS twice before staining with X-gal solution [1 mg/mL 5-bromo-4-chloro-3inolyl-β-D-galactoside (Boehringer Manneheim #745-740) in N,N-dimethylformamide, 5 mM potassium ferricyanide crystalline (#P-8131), 5 mM potassium […] (#P-3289), 2 mM magnesium chloride, and 1x PBS, pH 6.0. Cells or tissue sections were incubated at 37°C for 24 hours. After staining, cells were washed with PBS before being counted and imaged on the Leica Dmi8 microscope.
Mice were aged between 3-8 months and 20-30 g in weight and were housed in specific pathogen free cages. Animals were randomly distributed among treatment groups by assigning mice within the same cage to different treatment regimens. To minimise confounders, mouse treatment order was randomised within each cage. Male and female mice were distributed between all treatment groups since the chemicals used were directly injected and are not metabolized. Researchers were not blinded to the group allocation, but all attempts were made to analyse the data without knowing treatment conditions. […] Mice were then monitored daily and allowed to age until a humane endpoint was reached according to our IACUC protocol, which in this case was tumours of 2 cm in size. […]

[4] = tested on: Braf/Pten sporadic melanomas; assay: TUNEL staining of melanomas in transgenic mice; assay type: in vivo, mouse; settings: intratumoural injection daily over two days, single agents vs saline
Method: Fixed frozen sections of melanomas were stained with the Click-IT Plus TUNEL assay (ThermoFisher C10618) according to the manufacturer's protocol. Stained sections were imaged with a Zeiss A2 upright microscope at either 20x or 10x. At least one of each treatment group were stained and imaged at the same time. All sections from each staining group were set to the same exposure time for TUNEL and DAPI. Any normalization of background levels was performed in Adobe Photoshop and set to the same scale for the entire image and for all other images.

[5] = tested on: dividing A375 human melanoma cells; assay: Survival study, orthotopic A375 xenograft; assay type: in vivo, mouse; settings: local injection once daily for two days
Source text: as §1, with “Different combinations of drugs were locally injected to the region once daily for two days with 50 µL of either 5 mg/mL ES2, 10%Dabrafenib, or 5mg/mL ES2+10%Dabrafenib. Dabrafenib was made at 100 mg/mL in DMSO.” left out, “size.” for “size. Aged C57Bl6 male mice were purchased from the Jackson Laboratory (IMSR Car# JAX:000664, RRID:IMSR_JAX:000664) at 72 weeks of age and were started on the experiment at 82 weeks. Mice were treated with 3 mg of ES2 via tail vein injection weekly for three weeks and weighed weekly. Blood was drawn prior to beginning experiments and at the endpoint. To generate plasma, blood was centrifuged at 1,500g for 10 minutes, then 2,500g for 10 minutes, then frozen for later analyses.”

[6] = tested on: senescent A375 cells; assay: Peptide efficacy in culture (MTS), senescent cells; assay type: cell-based, human; settings: for IC50: doxorubicin (40 nM)-induced senescent A375 cells, peptide replenished daily for two days, MTS, best fit polynomial, read-out: IC50^sen, concentration to kill 50% of senescent cells; for senolytic activity (in words): senescent vs dividing A375 cells
Method: as §2

Row | Compound | luciferase signal compared to E1 and saline [1] | IC50 [2] | IC50 [6] | senolytic activity (in words) [6] | also measured
1 | [dL][dT][dL][dR][dK][dE][dP][dA][dS][dE][dI][dA][dQ][dS][dI][dL][dE][dA][dY][dS][dQ][dN]G[dW][dA][dN][dR][dR][dS]GG[dK][dR][dP][dP][dP][dR][dR][dR][dQ][dR][dR][dK][dK][dR]G [FOXO4-DRI, reference compound] | statistically significantly reduced luciferase signal |  |  |  | lytic activity in dividing cells (in words) [2]: minimal lytic activity in dividing cells
2 | CC(C)(C)c1nc(-c2cccc(NS(=O)(=O)c3c(F)cccc3F)c2F)c(-c2ccnc(N)n2)s1 [Dabrafenib] |  |  |  |  | increase of fraction of SA-β-gal+ cells within the melanoma over saline ([3]; Dabrafenib n=8, saline n=5, p<0.001): 11 fold; senescence of the melanoma compared to vehicle, in words ([3]; intratumoural injection daily over two days): strongly induced senescence; effect on apoptosis (TUNEL), in words [4]: no effect on apoptosis; effect on apoptosis (TUNEL), in words ([4]; listed as Dab): no difference; effect on survival time, in words ([5]; 25,000 A375 cells): no effect on survival time; effect on survival time, in words ([5]; 750,000 A375 cells): did not alter survival times
3 | YGRKKRRQRRRYGRKKRRQRRRYGRKKRRQRRR [ES1] | statistically significantly reduced luciferase signal | ~19 µM | ~4 µM | highest senolytic activity | 
4 | PRKGGSRRRAWGRRRYRRRLRRRLRRAPRKRLTLA [ES2r2] | statistically significantly reduced luciferase signal | > 20 µM | ~9 µM | slightly lower senolytic activity | 
5 | H-GRKKRRQRRRPPPRKGGSRRRAWGNQRYARLIRQAIESAPEKRLTLA-OH [E1] |  |  |  | negligible senolytic activity | 
6 | PRKGGRRRRAWGRRRRRRRLRRRLRRAPRKRLTLA [ES2r1] | statistically significantly reduced luciferase signal | ~13 µM | ~6 µM | highest senolytic activity | 
